Among the data in article PMC4092373, “Cell-secreted Flavins Bound to Membrane Cytochromes Dictate Electron Transfer Reactions to Surfaces with Diverse Charge and pH” (Scientific Reports, 2014) are Ep and Kd values, retold here.

The structures appear in SMILES notation.

In experiment [1] the target is T1, OmcA (Shewanella oneidensis, UniProt Q8EG33).
T1 construct: native outer-membrane decaheme cytochrome in intact living cells (wild type and delta-mtrC strain on ITO electrode), not purified
In words: whole-cell differential pulse voltammetry. The class given is cell-based. To be noted: redox peak potential of bound riboflavin, no affinity constant; delta-mtrC cells, 2.0 μM RF, 10 mM lactate, 30 °C; shift lost in delta-omcA cells.

The target in experiment [2] is T2, MtrC (Shewanella oneidensis, UniProt Q8EG34).
T2 construct: native outer-membrane decaheme cytochrome in intact living cells (monolayer biofilm on ITO electrode), not purified
In words: whole-cell differential pulse voltammetry. To be noted: rough estimate in living wild-type MR-1 monolayer biofilm; printed for FMN and OM c-Cyts collectively, assigned to MtrC by gene deletions; saturation assumed at 52 μM FMN; semiquinone form bound under. The experiment is classed as cell-based.

T2 sequence (Q8EG34 entry or part of it): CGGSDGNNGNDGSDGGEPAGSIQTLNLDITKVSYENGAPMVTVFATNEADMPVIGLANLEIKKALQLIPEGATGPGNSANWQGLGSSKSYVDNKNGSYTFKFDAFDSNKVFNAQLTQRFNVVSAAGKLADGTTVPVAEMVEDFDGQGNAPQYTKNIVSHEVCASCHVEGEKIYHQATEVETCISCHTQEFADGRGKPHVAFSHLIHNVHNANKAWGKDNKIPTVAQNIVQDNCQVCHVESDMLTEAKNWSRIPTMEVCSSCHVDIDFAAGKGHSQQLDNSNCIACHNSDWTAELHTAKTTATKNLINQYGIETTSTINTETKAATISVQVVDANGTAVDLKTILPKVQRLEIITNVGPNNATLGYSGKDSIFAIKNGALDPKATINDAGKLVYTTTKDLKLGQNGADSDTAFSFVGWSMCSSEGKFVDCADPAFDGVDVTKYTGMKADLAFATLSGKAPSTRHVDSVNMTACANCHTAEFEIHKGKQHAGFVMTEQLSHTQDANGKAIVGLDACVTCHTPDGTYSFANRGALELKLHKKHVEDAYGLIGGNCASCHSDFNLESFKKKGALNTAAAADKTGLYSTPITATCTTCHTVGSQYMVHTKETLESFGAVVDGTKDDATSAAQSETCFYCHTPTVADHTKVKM
T1 sequence (Q8EG33 entry or part of it): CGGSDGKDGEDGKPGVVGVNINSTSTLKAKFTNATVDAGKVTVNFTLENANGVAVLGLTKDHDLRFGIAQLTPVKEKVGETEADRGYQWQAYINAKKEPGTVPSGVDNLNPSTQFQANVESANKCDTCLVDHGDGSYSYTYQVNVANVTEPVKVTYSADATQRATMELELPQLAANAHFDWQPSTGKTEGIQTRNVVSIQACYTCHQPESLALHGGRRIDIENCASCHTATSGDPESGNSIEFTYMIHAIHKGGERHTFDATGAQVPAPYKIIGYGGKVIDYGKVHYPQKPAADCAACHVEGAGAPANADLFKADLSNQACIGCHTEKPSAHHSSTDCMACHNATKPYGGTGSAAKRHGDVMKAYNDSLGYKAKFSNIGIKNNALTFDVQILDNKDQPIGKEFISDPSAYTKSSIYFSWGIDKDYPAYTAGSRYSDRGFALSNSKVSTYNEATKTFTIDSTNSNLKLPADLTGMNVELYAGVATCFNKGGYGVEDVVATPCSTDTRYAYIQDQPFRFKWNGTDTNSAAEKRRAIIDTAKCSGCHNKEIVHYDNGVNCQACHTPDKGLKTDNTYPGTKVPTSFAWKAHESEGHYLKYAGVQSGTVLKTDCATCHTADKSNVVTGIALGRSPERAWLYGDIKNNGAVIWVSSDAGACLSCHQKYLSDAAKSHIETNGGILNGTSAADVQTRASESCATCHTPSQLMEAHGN

Turning to `Cc1cc2nc3c(=O)[nH]c(=O)nc-3n(C[C@H](O)[C@H](O)[C@H](O)CO)c2cc1C` [RF, riboflavin], the Ep in experiment [1] was −102 mV.

`Cc1cc2nc3c(=O)[nH]c(=O)nc-3n(C[C@H](O)[C@H](O)[C@H](O)COP(=O)(O)O)c2cc1C` [FMN, flavin mononucleotide]: the Kd in experiment [2] is about 10 µM.
